Test results taken from US11873287B2, “Piperidine-2,6-dione derivatives and ulcerative colitis treating” (TIANJIN HEMAY PHARMACEUTICAL SCI-TECH CO., LTD, priority 2016, dated 2024).

Legend:
[1] = system: DSS-Induced inflammatory Bowel Disease Models in Mice; assay: DSS-induced inflammatory bowel disease model in mice (Biological Example 4, 1.3% DSS); format: in vivo, C57BL/6 mice; conditions: 30 mg/Kg i.g. Q.D; for Average Length of Colon (Mean ± SD) / Inhibitory Rate of Colonic Reduction: 1.3% DSS days 0-5
Procedure: 40 healthy female C57BL/6 mice having weight of 16-19 g were randomly divided into 4 groups in accordance with weight. There were 10 mice in each group (see Table 6 below). The first day of the experiment was recorded as Day 0. The administration regimen and induction regimen were detailed in Table 6. The change in weight of experimental animals was recorded every day. […] Samples of animal colonic tissues were obtained to measure the length. One-way ANOVA analysis of mice weights was performed by SPSS22. Statistical analyses between groups were performed. Mann-Whitney U non-parametric test was performed on the length of colon.
The experimental method used in the present biological example is identical to those in Biological Example 3.
Calculation Formula of Inhibitory Rate of Colonic Reduction: (Length of Colon in Administration Group−Length of Colon in Model Group)/(Length of Colon in Blank Group−Length of Colon in Model Group)

ICR mice = assay: Acute toxicity experiment of single oral administration in mice; format: in vivo; conditions: 1000 mg/Kg single oral dose
Procedure: The mice were fasted one day before the experiment. On the day of the experiment, 6 mice (ICR mice, body weight of 19-21 g, three females and three males) were selected in each experiment group. First of all, one female and one male were selected to orally give 1000 mg/Kg, and observed for 5-10 minutes. If there were no obvious side effects, the remaining 4 animals were orally given the same dose, and observed for 10-15 minutes. If no animal died, the animals were placed in a box to balancedly feed for 7 days. The state was observed and the body weight was recorded daily.
Observation Indexes within 0-15 Minutes After Administration
Activity: restlessness, hyperactivity
Nervous system response: tremor, spasm, convulsion, ataxia, posture abnormality, etc.
Autonomic nerve: exophthalmos, salivation, tears, urination (hematuria), diarrhea, piloerection, breathing, etc.
Observation Indexes Over 7 Days
State of Animal: lethargy, hyperactivity, excitement, hair loss, diarrhea, abnormal behavior, death, etc.

SMILES	Average Length of Colon (Mean ± SD) [1]	Inhibitory Rate of Colonic Reduction [1]	Weights of Experimental Mice (Mean ± SD) ([1]; Day 0)	Weights of Experimental Mice (Mean ± SD) ([1]; Day 1)	Weights of Experimental Mice (Mean ± SD) ([1]; Day 2)	Weights of Experimental Mice (Mean ± SD) ([1]; Day 3)	Weights of Experimental Mice (Mean ± SD) ([1]; Day 4)	Weights of Experimental Mice (Mean ± SD) ([1]; Day 5)	Weights of Experimental Mice (Mean ± SD) ([1]; Day 6)	Weights of Experimental Mice (Mean ± SD) ([1]; Day 7)	Weights of Experimental Mice (Mean ± SD) ([1]; Day 8)	Weights of Experimental Mice (Mean ± SD) ([1]; Day 9)	Daily Body Weight of Tested Female Mice (Mean ± SD) (ICR mice; Day 1)	Daily Body Weight of Tested Male Mice (Mean ± SD) (ICR mice; Day 1)	Daily Body Weight of Tested Female Mice (Mean ± SD) (ICR mice; Day 2)	Daily Body Weight of Tested Male Mice (Mean ± SD) (ICR mice; Day 2)	Daily Body Weight of Tested Female Mice (Mean ± SD) (ICR mice; Day 3)	Daily Body Weight of Tested Male Mice (Mean ± SD) (ICR mice; Day 3)	Daily Body Weight of Tested Female Mice (Mean ± SD) (ICR mice; Day 4)	Daily Body Weight of Tested Male Mice (Mean ± SD) (ICR mice; Day 4)	other results
CNc1cccc2c1C(=O)N(C1CCC(=O)N(CCOC)C1=O)C2=O (stereo not drawn) [Example 2, 4-methylamino-2-(1-(2-methoxyethyl)-2,6-dioxopiperidin-3-yl)isoindolin-1,3-dione]	6.9 ± 0.2 cm	66.7%	20.1 ± 0.8 g	20.0 ± 0.7 g	19.8 ± 0.6 g	20.2 ± 0.8 g	20.2 ± 0.8 g	20.0 ± 0.6 g	18.9 ± 0.6 g	18.8 ± 0.7 g	18.8 ± 1.0 g	19.0 ± 1.1 g	19.2 ± 0.5 g	18.6 ± 0.5 g	22.7 ± 0.6 g	24.1 ± 0.4 g	23.2 ± 0.5 g	24.7 ± 0.2 g	23.2 ± 0.5 g	24.7 ± 0.2 g	Daily Body Weight of Tested Female Mice (Mean ± SD) (ICR mice; Day 5): 24.4 ± 0.2 g; Daily Body Weight of Tested Male Mice (Mean ± SD) (ICR mice; Day 5): 26.2 ± 0.6 g; Daily Body Weight of Tested Female Mice (Mean ± SD) (ICR mice; Day 6): 24.6 ± 1.1 g; Daily Body Weight of Tested Male Mice (Mean ± SD) (ICR mice; Day 6): 28.8 ± 0.5 g; Daily Body Weight of Tested Female Mice (Mean ± SD) (ICR mice; Day 7): 24.5 ± 1.9 g; Daily Body Weight of Tested Male Mice (Mean ± SD) (ICR mice; Day 7): 29.2 ± 0.8 g; Summary of toxic response of tested animals in 7 Days (ICR mice; Female): Abnormality was not observed in 7 days of the test; Summary of toxic response of tested animals in 7 Days (ICR mice; Male): Slight abnormality of activity was occasionally observed in two
Nc1cccc2c1C(=O)N(C1CCC(=O)N(CCO)C1=O)C2=O (stereo not drawn) [Example 6, 4-amino-2-(1-(2-hydroxyethyl)-2,6-dioxopiperidin-3-yl)isoindolin-1,3-dione]	6.9 ± 0.3 cm	66.7%	19.8 ± 0.6 g	19.9 ± 0.7 g	19.7 ± 0.7 g	20.0 ± 0.6 g	20.0 ± 0.6 g	19.9 ± 0.7 g	19.5 ± 0.6 g	19.4 ± 0.8 g	19.5 ± 0.7 g	19.6 ± 1.1 g	17.5 ± 0.9 g	18.4 ± 0.6 g	21.5 ± 0.9 g	21.5 ± 0.9 g	21.6 ± 1.3 g	21.6 ± 1.3 g	22.0 ± 1.2 g	25.5 ± 0.5 g	Daily Body Weight of Tested Female Mice (Mean ± SD) (ICR mice; Day 5): 22.3 ± 1.9 g; Daily Body Weight of Tested Male Mice (Mean ± SD) (ICR mice; Day 5): 25.9 ± 0.9 g; Daily Body Weight of Tested Female Mice (Mean ± SD) (ICR mice; Day 6): 22.4 ± 2.3 g; Daily Body Weight of Tested Male Mice (Mean ± SD) (ICR mice; Day 6): 26.9 ± 1.1 g; Daily Body Weight of Tested Female Mice (Mean ± SD) (ICR mice; Day 7): 22.9 ± 2.0 g; Daily Body Weight of Tested Male Mice (Mean ± SD) (ICR mice; Day 7): 27.1 ± 1.1 g; Summary of toxic response of tested animals in 7 Days (ICR mice; Female): Abnormality was not observed in 7 days of the test; Summary of toxic response of tested animals in 7 Days (ICR mice; Male): Abnormality was not observed in 7 days of the test
COCCCN1C(=O)CCC(N2C(=O)c3cccc(NC(C)=O)c3C2=O)C1=O (stereo not drawn) [Example 16, 4-acetylamino-2-(1-(3-methoxypropyl)-2,6-dioxopiperidin-3-yl)isoindolin-1,3-dione]	7.0 ± 0.4 cm	73.3%	19.8 ± 0.6 g	19.9 ± 0.4 g	19.7 ± 0.4 g	19.9 ± 0.6 g	19.7 ± 0.5 g	19.6 ± 0.5 g	19.3 ± 0.7 g	19.0 ± 1.0 g	18.9 ± 1.2 g	18.9 ± 1.1 g	–	–	–	–	–	–	–	–	–
CCOCCN1C(=O)CCC(N2C(=O)c3cccc(N)c3C2=O)C1=O (stereo not drawn) [Example 19, 4-amino-2-(1-(2-ethoxyethyl)-2,6-dioxopiperidin-3-yl)isoindolin-1,3-dione]	6.9 ± 0.4 cm	66.7%	19.6 ± 0.7 g	19.6 ± 0.8 g	19.7 ± 0.7 g	19.9 ± 0.7 g	20.0 ± 0.7 g	19.7 ± 0.5 g	19.2 ± 0.7 g	18.9 ± 0.8 g	19.0 ± 1.0 g	19.4 ± 0.8 g	18.0 ± 0.6 g	18.9 ± 1.2 g	20.7 ± 1.1 g	20.7 ± 1.1 g	21.3 ± 0.6 g	21.3 ± 0.6 g	22.8 ± 0.3 g	25.0 ± 2.0 g	Daily Body Weight of Tested Female Mice (Mean ± SD) (ICR mice; Day 5): 23.2 ± 0.7 g; Daily Body Weight of Tested Male Mice (Mean ± SD) (ICR mice; Day 5): 24.8 ± 1.9 g; Daily Body Weight of Tested Female Mice (Mean ± SD) (ICR mice; Day 6): 23.3 ± 1.2 g; Daily Body Weight of Tested Male Mice (Mean ± SD) (ICR mice; Day 6): 26.5 ± 1.9 g; Daily Body Weight of Tested Female Mice (Mean ± SD) (ICR mice; Day 7): 23.0 ± 1.7 g; Daily Body Weight of Tested Male Mice (Mean ± SD) (ICR mice; Day 7): 27.7 ± 2.2 g; Summary of toxic response of tested animals in 7 Days (ICR mice; Female): Severe motor dysfunction in three animals was observed 30; Summary of toxic response of tested animals in 7 Days (ICR mice; Male): Severe motor dysfunction in two animals was observed 30
